Among the data in US20260022096A1, “NOVEL SULFONAMIDES AND THEIR USE AS NEUROPROTECTIVE AND/OR NEURORESTORATIVE AGENTS” (GENECODE, priority 2022, published 2026) are EC50 values, retold here.

A value given as a limit tells only on which side of the number the result lay.

The target in the experiment is T1, GFRα1-RET (Homo sapiens, UniProt P56159).
T1 construct: expressed in transfected cells; host or cells: MG87 murine fibroblasts, stably transfected
T1 sequence (P56159 25-429 limits assumed): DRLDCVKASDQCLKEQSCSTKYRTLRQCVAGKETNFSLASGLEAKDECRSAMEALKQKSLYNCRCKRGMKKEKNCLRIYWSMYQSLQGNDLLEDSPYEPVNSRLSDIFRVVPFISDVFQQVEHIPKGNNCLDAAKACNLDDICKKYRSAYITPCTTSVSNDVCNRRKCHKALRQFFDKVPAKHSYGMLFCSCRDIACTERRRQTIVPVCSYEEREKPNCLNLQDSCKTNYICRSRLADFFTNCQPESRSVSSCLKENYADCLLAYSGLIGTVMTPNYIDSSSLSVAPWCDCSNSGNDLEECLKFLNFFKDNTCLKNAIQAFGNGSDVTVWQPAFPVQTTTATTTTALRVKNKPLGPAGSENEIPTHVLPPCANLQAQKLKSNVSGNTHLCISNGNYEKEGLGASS
Description: Elk1 reporter-gene (luciferase) assay in cells expressing GFRα1-RET. The following applies: MG87 murine fibroblasts stably transfected with PathDetect Elk-1, GFRα1 and RET, 6 concentrations, agonist/activator activity. The format is cell-based. The procedure:
For ECso determination, a dose-response test was performed using 6 concentrations of each tested compound. Dose-response curves were fitted using the sigmoidal dose-response (variable slope) analysis in GraphPad Prism program (Graph Pad Inc) and ECso of agonist/activator activity was calculated. Dose-response experiments were all performed in duplicate, two times independently.
With `O=C(c1ccc(F)cc1Cl)N1C[C@H]2CC[C@@H](C1)N2c1cc(S(=O)(=O)N2CCN(CCc3ccc(Cl)cc3)CC2)ccc1O` [compound 064, (2-chloro-4-fluoro-phenyl)-[(1S,5R)-8-[5-[4-[2-(4-chlorophenyl)ethyl]piperazin-1-yl]sulfonyl-2-hydroxy-phenyl]-3,8-diazabicyclo[3.2.1]octan-3-yl]methanone], the EC50 (as a rule, the concentration at which the effect is half-maximal) was less than 1 µM. The compound `O=C(c1ccc(F)cc1Cl)N1C[C@H]2CC[C@@H](C1)N2c1cc(S(=O)(=O)N2CCC(c3ccc(F)cc3)CC2)ccc1O` [compound 065, (2-chloro-4-fluoro-phenyl)-[(1S,5R)-8-[5-[[4-(4-fluorophenyl)-1-piperidyl]sulfonyl]-2-hydroxy-phenyl]-3,8-diazabicyclo[3.2.1]octan-3-yl]methanone] registered an EC50 of less than 1 µM.

`O=C(c1ccc(F)cc1Cl)N1C[C@H]2CC[C@@H](C1)N2c1cc(S(=O)(=O)N2CCC(c3ccccc3)CC2)ccc1Cl` [compound 066, (2-chloro-4-fluoro-phenyl)-[(1S,5R)-8-[2-chloro-5-[(4-phenyl-1-piperidyl)sulfonyl]phenyl]-3,8-diazabicyclo[3.2.1]octan-3-yl]methanone]: the EC50 is less than 1 µM. Regarding `Cc1ccc(S(=O)(=O)N2CCC(c3ccccc3)CC2)cc1N1[C@@H]2CC[C@H]1CN(C(=O)c1ccc(F)cc1Cl)C2` [compound 067, (2-chloro-4-fluoro-phenyl)-[(1S,5R)-8-[2-methyl-5-[(4-phenyl-1-piperidyl)sulfonyl]phenyl]-3,8-diazabicyclo[3.2.1]octan-3-yl]methanone], the EC50 is less than 1 µM. Turning to `CCCN(C)S(=O)(=O)c1ccc(C)c(N2[C@@H]3CC[C@H]2CN(C(=O)c2ccc(F)cc2Cl)C3)c1` [compound 068, 3-[(1S,5R)-3-(2-chloro-4-fluoro-benzoyl)-3,8-diazabicyclo[3.2.1]octan-8-yl]-N,4-dimethyl-N-propyl-benzenesulfonamide], the EC50 was less than 1 µM.

In turn, `COC(=O)c1ccc(S(=O)(=O)N2CCC(c3ccccc3)CC2)cc1N1[C@@H]2CC[C@H]1CN(C(=O)c1ccc(F)cc1Cl)C2` [compound 069, methyl 2-[(1S,5R)-3-(2-chloro-4-fluoro-benzoyl)-3,8-diazabicyclo[3.2.1]octan-8-yl]-4-[(4-phenyl-1-piperidyl)sulfonyl]benzoate] yielded an EC50 of less than 1 µM. For `O=C(c1ccc(F)cc1Cl)N1C[C@H]2CC[C@@H](C1)N2c1cc(S(=O)(=O)N2CCC(c3ccccc3)CC2)ccc1CO` [compound 070, (2-chloro-4-fluoro-phenyl)-[(1S,5R)-8-[2-(hydroxymethyl)-5-[(4-phenyl-1-piperidyl)sulfonyl]phenyl]-3,8-diazabicyclo[3.2.1]octan-3-yl]methanone], the EC50 is less than 1 µM. Consider `O=C(O)c1ccc(S(=O)(=O)N2CCC(c3ccccc3)CC2)cc1N1[C@@H]2CC[C@H]1CN(C(=O)c1ccc(F)cc1Cl)C2` [compound 071, 2-[(1S,5R)-3-(2-chloro-4-fluoro-benzoyl)-3,8-diazabicyclo[3.2.1]octan-8-yl]-4-[(4-phenyl-1-piperidyl)sulfonyl]benzoic acid], for which the EC50 was less than 1 µM.

Compound `CC(C)(O)c1ccc(S(=O)(=O)N2CCC(c3ccccc3)CC2)cc1N1[C@@H]2CC[C@H]1CN(C(=O)c1ccc(F)cc1Cl)C2` [compound 072, (2-chloro-4-fluoro-phenyl)-[(1S,5R)-8-[2-(1-hydroxy-1-methyl-ethyl)-5-[(4-phenyl-1-piperidyl)sulfonyl]phenyl]-3,8-diazabicyclo[3.2.1]octan-3-yl]methanone] came in with an EC50 of 1 to 10 µM.

In the case of `CN(C)Cc1ccc(S(=O)(=O)N2CCC(c3ccccc3)CC2)cc1N1[C@@H]2CC[C@H]1CN(C(=O)c1ccc(F)cc1Cl)C2` [compound 073, (2-chloro-4-fluoro-phenyl)-[(1S,5R)-8-[2-[(dimethylamino)methyl]-5-[(4-phenyl-1-piperidyl)sulfonyl]phenyl]-3,8-diazabicyclo[3.2.1]octan-3-yl]methanone], the EC50 is 1 to 10 µM.

The compound `Cc1c(Cl)cc(S(=O)(=O)NC(C)(C)C)cc1N1[C@@H]2CC[C@H]1CN(C(=O)c1ccc(F)cc1Cl)C2` [compound 074, N-tert-butyl-3-chloro-5-[(1S,5R)-3-(2-chloro-4-fluoro-benzoyl)-3,8-diazabicyclo[3.2.1]octan-8-yl]-4-methyl-benzenesulfonamide] had an EC50 of less than 1 µM.

For the compound `CC(C)(C)NS(=O)(=O)c1cc(Cl)c(Cl)c(N2[C@@H]3CC[C@H]2CN(C(=O)c2ccc(F)cc2Cl)C3)c1` [compound 075, N-tert-butyl-3,4-dichloro-5-[(1S,5R)-3-(2-chloro-4-fluoro-benzoyl)-3,8-diazabicyclo[3.2.1]octan-8-yl]benzenesulfonamide], the EC50 is less than 1 µM. Consider `O=C(c1ccc(F)cc1Cl)N1C[C@H]2CC[C@@H](C1)N2c1cc(S(=O)(=O)N2CCC(c3ccccc3)CC2)ccc1OCCO` [compound 076], for which the EC50 is less than 1 µM. For the compound `O=C(c1ccc(F)cc1Cl)N1C[C@H]2CC[C@@H](C1)N2c1cc(S(=O)(=O)N2CCC(CCc3ccccc3)CC2)ccc1OCCO` [compound 077, (2-chloro-4-fluoro-phenyl)-[(1S,5R)-8-[2-(2-hydroxyethoxy)-5-[[4-(2-phenylethyl)-1-piperidyl]sulfonyl]phenyl]-3,8-diazabicyclo[3.2.1]octan-3-yl]methanone], the EC50 was less than 1 µM. For `O=C(c1ccc(F)cc1Cl)N1C[C@H]2CC[C@@H](C1)N2c1cc(S(=O)(=O)N2CCN(CCc3ccc(Cl)cc3)CC2)ccc1OCCO` [compound 078, (2-chloro-4-fluoro-phenyl)-[(1S,5R)-8-[5-[4-[2-(4-chlorophenyl)ethyl]piperazin-1-yl]sulfonyl-2-(2-hydroxyethoxy)phenyl]-3,8-diazabicyclo[3.2.1]octan-3-yl]methanone], the EC50 is less than 1 µM. `CCCN(C)S(=O)(=O)c1ccc(C2CC2)c(N2[C@@H]3CC[C@H]2CN(C(=O)c2ccc(F)cc2Cl)C3)c1` [compound 079]: the EC50 is less than 1 µM. On to `O=C(c1ccc(F)cc1Cl)N1C[C@H]2CC[C@@H](C1)N2c1cc(S(=O)(=O)N2CCC(c3ccccc3)CC2)ccc1C1CC1` [compound 080, (2-chloro-4-fluoro-phenyl)-[(1S,5R)-8-[2-cyclopropyl-5-[(4-phenyl-1-piperidyl)sulfonyl]phenyl]-3,8-diazabicyclo[3.2.1]octan-3-yl]methanone], for which the EC50 was less than 1 µM. `O=C(c1ccc(F)cc1Cl)N1C[C@H]2CC[C@@H](C1)N2c1cc(S(=O)(=O)N2CCC(c3ccccc3)CC2)ccc1-c1c[nH]cn1` [compound 081] registered an EC50 of less than 1 µM.

`Cn1cnc(-c2ccc(S(=O)(=O)N3CCC(c4ccccc4)CC3)cc2N2[C@@H]3CC[C@H]2CN(C(=O)c2ccc(F)cc2Cl)C3)c1` [compound 082, (2-chloro-4-fluoro-phenyl)-[(1S,5R)-8-[2-(1-methylimidazol-4-yl)-5-[(4-phenyl-1-piperidyl)sulfonyl]phenyl]-3,8-diazabicyclo[3.2.1]octan-3-yl]methanone] had an EC50 of 1 to 10 µM.

Turning to `O=C(c1ccc(F)cc1Cl)N1C[C@H]2CC[C@@H](C1)N2c1cc(S(=O)(=O)N2CCC(c3ccccc3)CC2)cc(F)c1O` [compound 083, (2-chloro-4-fluoro-phenyl)-[(1S,5R)-8-[3-fluoro-2-hydroxy-5-[(4-phenyl-1-piperidyl)sulfonyl]phenyl]-3,8-diazabicyclo[3.2.1]octan-3-yl]methanone], the EC50 was less than 1 µM.

The compound `O=C(c1ccc(F)cc1Cl)N1C[C@H]2CC[C@@H](C1)N2c1cc(S(=O)(=O)N2CCC(c3ccc(F)cc3)CC2)cc(F)c1O` [compound 084, (2-chloro-4-fluoro-phenyl)-[(1S,5R)-8-[3-fluoro-5-[[4-(4-fluorophenyl)-1-piperidyl]sulfonyl]-2-hydroxy-phenyl]-3,8-diazabicyclo[3.2.1]octan-3-yl]methanone] gave an EC50 of less than 1 µM. `CC(C)(C)NS(=O)(=O)c1cc(F)c(O)c(N2[C@@H]3CC[C@H]2CN(C(=O)c2ccc(F)cc2Cl)C3)c1` [compound 085, N-tert-butyl-3-[(1S,5R)-3-(2-chloro-4-fluoro-benzoyl)-3,8-diazabicyclo[3.2.1]octan-8-yl]-5-fluoro-4-hydroxy-benzenesulfonamide] had an EC50 of less than 1 µM. As for `CN(CC1CC1)S(=O)(=O)c1cc(F)c(O)c(N2[C@@H]3CC[C@H]2CN(C(=O)c2ccc(F)cc2Cl)C3)c1` [compound 086, 3-[(1S,5R)-3-(2-chloro-4-fluoro-benzoyl)-3,8-diazabicyclo[3.2.1]octan-8-yl]-N-(cyclopropylmethyl)-5-fluoro-4-hydroxy-N-methyl-benzenesulfonamide], the EC50 was less than 1 µM. To `O=C(c1ccc(F)cc1Cl)N1C[C@H]2CC[C@@H](C1)N2c1cc(S(=O)(=O)N2CCC(c3ccccc3)CC2)cc(C(F)(F)F)c1O` [compound 087] belongs less than 1 µM. To `O=C(c1ccc(F)cc1Cl)N1C[C@H]2CC[C@@H](C1)N2c1cc(S(=O)(=O)N2CCC(c3ccc(F)cc3)CC2)cc(C(F)(F)F)c1O` [compound 088, (2-chloro-4-fluoro-phenyl)-[(1S,5R)-8-[5-[[4-(4-fluorophenyl)-1-piperidyl]sulfonyl]-2-hydroxy-3-(trifluoromethyl)phenyl]-3,8-diazabicyclo[3.2.1]octan-3-yl]methanone] belongs less than 1 µM. Compound `CC(C)(C)NS(=O)(=O)c1cc(N2[C@@H]3CC[C@H]2CN(C(=O)c2ccc(F)cc2Cl)C3)c(O)c(C(F)(F)F)c1` [compound 089] displayed a concentration giving a half-maximal response (EC50) of 1 to 10 µM.
